In US20200165291A1, “NEUROACTIVE STEROIDS, COMPOSITIONS, AND USES THEREOF” (Sage Therapeutics, Inc., priority 2014, published 2020):
Where two headings read alike, the source gives them in different places.

Legend:
[1] = biological target: T1, recombinant α1β2γ2 GABAA receptors (Homo sapiens, UniProt P14867+P47870); assay: Patch clamp electrophysiology, QPatch, LTK cells; format: cell-based; settings: 10 μM test article, GABA EC20 = 2 μM, read-out: GABA (α1β2γ2) Qpatch in Ltk, % efficacy at 10 μM
T1 construct: expressed in transfected cells
T1 sequence (P14867 28-456): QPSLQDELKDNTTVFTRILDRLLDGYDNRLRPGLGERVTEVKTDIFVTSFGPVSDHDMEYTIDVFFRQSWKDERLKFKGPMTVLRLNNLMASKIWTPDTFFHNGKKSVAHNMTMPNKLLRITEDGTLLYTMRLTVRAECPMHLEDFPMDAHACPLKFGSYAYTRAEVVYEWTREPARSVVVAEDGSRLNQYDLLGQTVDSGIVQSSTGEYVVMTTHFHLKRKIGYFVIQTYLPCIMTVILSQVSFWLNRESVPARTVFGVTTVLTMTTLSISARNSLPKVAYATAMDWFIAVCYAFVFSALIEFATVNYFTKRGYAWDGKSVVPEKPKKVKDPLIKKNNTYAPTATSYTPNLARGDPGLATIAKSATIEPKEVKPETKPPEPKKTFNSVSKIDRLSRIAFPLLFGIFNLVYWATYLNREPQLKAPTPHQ
T1 sequence (P47870 25-512 limits assumed): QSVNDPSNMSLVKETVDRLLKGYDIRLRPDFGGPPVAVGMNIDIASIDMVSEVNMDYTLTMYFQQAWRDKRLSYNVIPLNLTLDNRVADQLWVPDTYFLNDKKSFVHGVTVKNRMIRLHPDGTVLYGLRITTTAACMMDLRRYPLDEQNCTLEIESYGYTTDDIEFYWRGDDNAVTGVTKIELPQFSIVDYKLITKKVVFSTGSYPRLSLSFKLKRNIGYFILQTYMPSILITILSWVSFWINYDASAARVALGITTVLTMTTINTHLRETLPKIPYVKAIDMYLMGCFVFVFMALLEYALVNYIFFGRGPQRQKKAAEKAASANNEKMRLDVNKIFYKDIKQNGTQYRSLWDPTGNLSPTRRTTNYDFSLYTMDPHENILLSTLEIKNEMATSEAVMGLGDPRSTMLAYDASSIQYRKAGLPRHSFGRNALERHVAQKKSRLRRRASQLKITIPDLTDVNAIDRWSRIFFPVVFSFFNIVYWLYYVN
T1 sequence (P18507 40-475 partner): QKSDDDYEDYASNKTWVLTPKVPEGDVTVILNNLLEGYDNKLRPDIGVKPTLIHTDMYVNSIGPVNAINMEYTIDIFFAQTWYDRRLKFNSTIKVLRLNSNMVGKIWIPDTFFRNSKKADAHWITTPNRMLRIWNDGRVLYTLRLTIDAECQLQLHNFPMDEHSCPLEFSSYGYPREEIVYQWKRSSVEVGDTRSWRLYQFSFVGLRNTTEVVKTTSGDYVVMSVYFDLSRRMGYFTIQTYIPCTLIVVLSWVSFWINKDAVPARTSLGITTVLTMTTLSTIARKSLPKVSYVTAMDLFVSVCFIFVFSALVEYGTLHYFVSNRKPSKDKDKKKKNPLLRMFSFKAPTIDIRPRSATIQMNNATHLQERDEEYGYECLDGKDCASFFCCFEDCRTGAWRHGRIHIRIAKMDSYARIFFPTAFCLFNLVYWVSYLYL

[2] = biological target: T2, recombinant α4β3δ GABAA receptors (Homo sapiens, UniProt P28472+P48169); assay: Patch clamp electrophysiology, manual patch, CHO cells; format: cell-based; settings: 10 μM test article, GABA EC20 = 2 μM, read-out: GABA (α4β3δ) Manual patch in CHO, % efficacy at 10 μM
T2 construct: expressed in transfected cells; host or cells: CHO cells (transient transfection, Lipofectamine)
T2 sequence (P48169 36-554): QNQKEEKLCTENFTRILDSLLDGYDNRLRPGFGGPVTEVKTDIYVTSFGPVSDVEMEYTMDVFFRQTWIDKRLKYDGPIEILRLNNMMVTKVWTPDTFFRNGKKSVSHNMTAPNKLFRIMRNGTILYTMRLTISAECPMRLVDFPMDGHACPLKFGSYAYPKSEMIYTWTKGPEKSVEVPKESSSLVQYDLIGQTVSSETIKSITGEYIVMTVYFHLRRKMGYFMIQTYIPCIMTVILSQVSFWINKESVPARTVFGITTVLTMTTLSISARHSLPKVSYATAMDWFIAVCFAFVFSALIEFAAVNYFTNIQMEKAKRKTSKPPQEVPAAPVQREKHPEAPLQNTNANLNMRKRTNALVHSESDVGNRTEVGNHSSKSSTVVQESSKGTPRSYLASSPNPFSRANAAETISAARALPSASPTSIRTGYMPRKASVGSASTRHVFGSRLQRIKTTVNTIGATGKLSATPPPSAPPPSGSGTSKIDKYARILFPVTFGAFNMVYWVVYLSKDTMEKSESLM
T2 sequence (P28472 26-473): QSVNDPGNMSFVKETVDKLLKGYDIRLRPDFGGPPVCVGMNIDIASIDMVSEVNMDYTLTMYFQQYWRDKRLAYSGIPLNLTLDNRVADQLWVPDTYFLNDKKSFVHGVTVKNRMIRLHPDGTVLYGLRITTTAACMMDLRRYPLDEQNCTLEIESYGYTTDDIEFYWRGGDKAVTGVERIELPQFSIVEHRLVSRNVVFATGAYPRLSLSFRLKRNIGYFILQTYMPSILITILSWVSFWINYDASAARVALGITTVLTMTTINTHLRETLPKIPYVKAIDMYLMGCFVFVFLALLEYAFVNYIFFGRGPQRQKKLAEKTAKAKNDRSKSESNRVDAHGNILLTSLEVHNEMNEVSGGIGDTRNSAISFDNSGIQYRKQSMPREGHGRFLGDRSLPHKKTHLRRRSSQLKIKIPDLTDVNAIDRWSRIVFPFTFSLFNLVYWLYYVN
T2 sequence (O14764 17-452 partner limits assumed): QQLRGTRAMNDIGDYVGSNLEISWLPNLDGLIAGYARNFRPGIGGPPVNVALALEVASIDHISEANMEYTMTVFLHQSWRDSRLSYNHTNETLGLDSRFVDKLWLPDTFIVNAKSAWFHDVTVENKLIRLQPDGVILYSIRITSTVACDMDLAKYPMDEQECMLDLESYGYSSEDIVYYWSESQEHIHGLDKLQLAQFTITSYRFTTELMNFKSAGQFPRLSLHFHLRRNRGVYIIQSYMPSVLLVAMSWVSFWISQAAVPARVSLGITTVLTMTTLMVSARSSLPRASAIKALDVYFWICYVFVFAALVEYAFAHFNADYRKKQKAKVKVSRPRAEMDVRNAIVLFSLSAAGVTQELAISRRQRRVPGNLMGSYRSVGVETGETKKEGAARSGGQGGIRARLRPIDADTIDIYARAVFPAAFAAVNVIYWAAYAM

[3] = biological target: [35S]-TBPS binding, rat brain cortical membranes (GABA receptor complex); assay: [35S]-TBPS binding (steroid inhibition of TBPS binding); settings: in the presence of 5 μM GABA, read-out: 35S-TBPS Radioligand Displacement
Procedure: [35S]-t-Butylbicyclophosphorothionate (TBPS) binding assays using rat brain cortical membranes in the presence of 5 μM GABA has been described (Gee et al, J. Pharmacol. Exp. Ther. 1987, 241, 346-353; Hawkinson et al, Mol. Pharmacol. 1994, 46, 977-985; Lewin, A. H et al., Mol. Pharmacol. 1989, 35, 189-194).
Briefly, cortices are rapidly removed following decapitation of carbon dioxide-anesthetized Sprague-Dawley rats (200-250 g). The cortices are homogenized in 10 volumes of ice-cold 0.32 M sucrose using a glass/teflon homogenizer and centrifuged at 1500×g for 10 min at 4° C. The resultant supernatants are centrifuged at 10,000×g for 20 min at 4° C. to obtain the P2 pellets. The P2 pellets are resuspended in 200 mM NaCl/50 mM Na-K phosphate pH 7.4 buffer and centrifuged at 10,000×g for 10 min at 4° C. This washing procedure is repeated twice and the pellets are resuspended in 10 volumes of buffer. Aliquots (100 μL) of the membrane suspensions are incubated with 3 nM [^35S]-TBPS and 5 μL aliquots of test drug dissolved in dimethyl sulfoxide (DMSO) (final 0.5%) in the presence of 5 μM GABA. The incubation is brought to a final volume of 1.0 mL with buffer. Nonspecific binding is determined in the presence of 2 μM unlabeled TBPS and ranged from 15 to 25%. Following a 90 min incubation at room temp, the assays are terminated by filtration through glass fiber filters (Schleicher and Schuell No. 32) using a cell harvester (Brandel) and rinsed three times with ice-cold buffer. Filter bound radioactivity is measured by liquid scintillation spectrometry. Non-linear curve fitting of the overall data for each drug averaged for each concentration is done using Prism (GraphPad). […] The concentration of test compound producing 50% inhibition (IC50) of specific binding and the maximal extent of inhibition (Imax) are determined for the individual experiments with the same model used for the overall data and then the means±SEM.s of the individual experiments are calculated.
Various compounds are or can be screened to determine their potential as modulators of [^35S]-TBPS binding in vitro. These assays are or can be performed in accordance with the above discussed procedures.

[4] = test system: PTZ-treated male CD-1 mice; assay: Acute PTZ (pentylenetetrazol-induced seizure) method in mice; format: in vivo; settings: Mus musculus, latency to tonic seizures, read-out: Anticonvulsive Effect Dose (minimal effective anticonvulsant dose)
Procedure: The anticonvulsant effect of test compounds were assessed in the pentylenetetazol-induced seizure assay in mice similar to methods described in Giardina & Gasior (2009) Curr Protoc Pharmacol., Chapter 5. Male CD-1 mice were housed in groups of five under controlled conditions (temperature of 22±2° C. and 12:12 light-dark cycle, lights on at 8:00 am) and water and food were available ad libitum. The mice were housed for 1 week prior to behavioral testing, at which time they weighed 25-35 g. Pentylenetetrazol (PTZ, Sigma) was dissolved in sterile 0.9% saline at a concentration of 12 mg/mL concentration for subcutaneous administration. Test compounds were formulated and administered via oral gavage or intraperitoneal injection at a predetermined time-point (typically 30 or 60 minutes) prior to PTZ injection. All solutions were made fresh and were given in a volume of 10 ml/kg body weight.
Mice were acclimated to the test room for at least 30 min before compound administration. Mice were randomized into at least four test groups (vehicle and at least three doses of the test compound) with 10 mice per group. […] Following the drug pretreatment time the mice were injected s.c. with PTZ (120 mg/kg). Immediately following the PTZ injection, mice were individually placed into observation chambers (25×15×15 cm) and a three-channel timer was started. Each mouse was continuously observed for 30 min and the following behaviors were recorded by observers blinded to the treatments: 1) latency to clonic convulsions that persist for 3 sec and followed by an absence of righting reflex 2) latency to tonic convulsions, characterized by the rigid extension of all four limbs that exceeded a 90 degree angle with the body 3) latency to death 4) number of clonic and tonic convulsions. Data are presented as mean±S.E.M and one-way analysis of variance with Dunnett's or Bonferroni's post-hoc test was used to detect significant differences in latency and number between the vehicle and dose group. p values<0.05 were regarded as statistically significant.

Compound | Emax at 10 µM [1] | Emax at 10 µM [2] | IC50 [3] | minimal effective dose ([4]; PO (oral administration)) | minimal effective dose ([4]; IP (intraperitoneal injection)) | Emax at 10 µM ([1]; in cremophor) | Emax at 10 µM ([2]; in cremophor)
Cc1nnnn1CC(=O)[C@H]1CC[C@H]2[C@@H]3CC[C@@H]4C[C@@](O)(CF)CC[C@@H]4[C@H]3CC[C@]12C [SF-2] | 100 to 500% | > 500% | – | – | – | – | –
C[C@@]1(O)CC[C@H]2[C@H](CC[C@@H]3[C@@H]2CC[C@]2(C)[C@@H](C(=O)Cn4cnnn4)CC[C@@H]32)C1 [SA-2] | > 500% | 100 to 500% | 0.05 to 0.1 µM | 1 to 3 mg/kg | – | – | –
Cc1nnnn1CC(=O)[C@H]1CC[C@H]2[C@@H]3CC[C@@H]4C[C@](C)(O)CC[C@@H]4[C@H]3CC[C@]12C [SA-6] | 100 to 500% | > 500% | 0.001 to 0.05 µM | 1 to 3 mg/kg | – | – | –
COC[C@@]1(O)CC[C@H]2[C@@H](CC[C@@H]3[C@@H]2CC[C@]2(C)[C@@H](C(=O)Cn4cnnn4)CC[C@@H]32)C1 [SI-1] | 100 to 500% | > 500% | 0.1 to 0.5 µM | 1 to 3 mg/kg | – | – | –
C[C@@]1(O)CC[C@@H]2[C@H]3CC[C@]4(C)[C@@H](C(=O)Cn5cnnn5)CC[C@H]4[C@@H]3C[C@@H](F)[C@H]2C1 [SV-4] | 100 to 500% | 100 to 500% | – | 1 to 3 mg/kg | – | – | –
Cc1cnnn1CC(=O)[C@H]1CC[C@H]2[C@@H]3CC[C@@H]4C[C@](C)(O)CC[C@@H]4[C@H]3CC[C@]12C [SA-4] | > 500% | > 500% | – | – | – | – | –
Cc1nnnn1CC(=O)[C@H]1CC[C@H]2[C@@H]3C[C@@H](F)[C@H]4C[C@](C)(O)CC[C@@H]4[C@H]3CC[C@]12C [SV-6] | 100 to 500% | 100 to 500% | – | – | – | – | –
C[C@@]1(O)CC[C@H]2[C@@H](CC[C@@H]3[C@@H]2CC[C@]2(C)[C@@H](C(=O)Cn4cnnn4)CC[C@@H]32)C1 [SB-2] | 100 to 500% | 100 to 500% | 0.1 to 0.5 µM | – | > 3 mg/kg | – | –
C[C@]12CC[C@H]3[C@@H](CC[C@@H]4C[C@@](O)(C(F)F)CC[C@@H]43)[C@@H]1CC[C@@H]2C(=O)Cn1cnnn1 [SG-1] | 100 to 500% | 100 to 500% | – | – | – | – | –
C[C@H]1C[C@H]2[C@@H](CC[C@@H]3[C@@H]2CC[C@]2(C)[C@@H](C(=O)Cn4nccn4)CC[C@@H]32)C[C@]1(C)O [SZ-2] | 100 to 500% | 100 to 500% | 0.05 to 0.1 µM | – | – | – | –
Cc1nnnn1CC(=O)[C@H]1CC[C@H]2[C@@H]3CC[C@H]4C[C@](C)(O)CC[C@@H]4[C@H]3CC[C@]12C [SB-4] | 100 to 500% | > 500% | – | – | – | – | –
C[C@@H]1C[C@H]2[C@@H](CC[C@@H]3[C@@H]2CC[C@]2(C)[C@@H](C(=O)Cn4nccn4)CC[C@@H]32)C[C@]1(C)O [SN-2] | 100 to 500% | 100 to 500% | 0.001 to 0.05 µM | – | – | – | –
COC[C@@]1(O)CC[C@H]2[C@@H](CC[C@@H]3[C@@H]2CC[C@]2(C)[C@@H](C(=O)Cn4ccnn4)CC[C@@H]32)C1 [SI-2] | 100 to 500% | > 500% | 0.1 to 0.5 µM | 1 to 3 mg/kg | – | – | –
C[C@@]1(O)CC[C@@H]2[C@H]3CC[C@]4(C)[C@@H](C(=O)Cn5ccnn5)CC[C@H]4[C@@H]3C[C@@H](F)[C@H]2C1 [SV-1] | 100 to 500% | 100 to 500% | 0.1 to 0.5 µM | 1 to 3 mg/kg | – | – | –
CO[C@H]1C[C@H]2[C@@H](CC[C@@H]3[C@@H]2CC[C@]2(C)[C@@H](C(=O)Cn4nccn4)CC[C@@H]32)C[C@]1(C)O [SU-2] | 100 to 500% | > 500% | 0.05 to 0.1 µM | – | – | – | –
C[C@@]1(O)CC[C@H]2[C@@H](CC[C@@H]3[C@@H]2CC[C@]2(C)[C@@H](C(=O)Cn4ccnn4)CC[C@@H]32)C1 [SB-6] | 100 to 500% | 100 to 500% | 0.05 to 0.1 µM | – | 1 to 3 mg/kg | – | –
COC[C@@]1(O)CC[C@H]2[C@@H](CC[C@@H]3[C@@H]2CC[C@]2(C)[C@@H](C(=O)Cn4nnnc4C)CC[C@@H]32)C1 [SI-3] | 100 to 500% | > 500% | – | ≤ 1 mg/kg | – | – | –
C[C@@]1(O)CC[C@H]2[C@@H](CC[C@@H]3[C@@H]2CC[C@]2(C)[C@@H](C(=O)Cn4cncn4)CC[C@@H]32)C1 [SB-1] | – | > 500% | 0.1 to 0.5 µM | – | – | – | –
C[C@@]1(O)CC[C@@H]2[C@H]3CC[C@]4(C)[C@@H](C(=O)Cn5nccn5)CC[C@H]4[C@@H]3C[C@@H](F)[C@@H]2C1 [SH-2] | 100 to 500% | – | > 0.5 µM | – | – | – | –
CC[C@@]1(O)CC[C@H]2[C@@H](CC[C@@H]3[C@@H]2CC[C@]2(C)[C@@H](C(=O)Cn4nccn4)CC[C@@H]32)C1 [SP-2] | 100 to 500% | – | 0.1 to 0.5 µM | – | – | – | –
CO[C@@H]1C[C@@H]2[C@H](CC[C@]3(C)[C@@H](C(=O)Cn4ccnn4)CC[C@@H]23)[C@H]2CC[C@@](C)(O)C[C@H]21 [SL-1] | 10 to 100% | – | > 0.5 µM | – | – | – | –
C[C@H]1C[C@H]2[C@@H](CC[C@@H]3[C@@H]2CC[C@]2(C)[C@@H](C(=O)Cn4ccnn4)CC[C@@H]32)C[C@]1(C)O [SZ-1] | 100 to 500% | – | 0.05 to 0.1 µM | – | – | – | –
COC[C@@]1(O)CC[C@H]2[C@H](CC[C@@H]3[C@@H]2CC[C@]2(C)[C@@H](C(=O)Cn4ccnn4)CC[C@@H]32)C1 [SM-5] | > 500% | – | 0.1 to 0.5 µM | – | – | – | –
C[C@@]1(O)CC[C@H]2[C@H](CC[C@@H]3[C@@H]2CC[C@]2(C)[C@@H](C(=O)Cn4ncc(C(N)=O)n4)CC[C@@H]32)C1 [SA-13] | – | – | – | – | – | 100 to 500% | > 500%
CCO[C@H]1C[C@H]2[C@@H](CC[C@@H]3[C@@H]2CC[C@]2(C)[C@@H](C(=O)Cn4nccn4)CC[C@@H]32)C[C@]1(C)O [SY-2] | 100 to 500% | > 500% | 0.1 to 0.5 µM | – | – | – | –
C[C@]12CC[C@H]3[C@@H](CC[C@@H]4C[C@@](O)(CF)CC[C@@H]43)[C@@H]1CC[C@@H]2C(=O)Cn1cnnn1 [SF-1] | 100 to 500% | – | 0.1 to 0.5 µM | – | – | – | –
C[C@@]1(O)CC[C@H]2[C@H](CC[C@@H]3[C@@H]2CC[C@]2(C)[C@@H](C(=O)Cn4ccnn4)CC[C@@H]32)C1 [SA-9] | 100 to 500% | > 500% | 0.001 to 0.05 µM | – | 1 to 3 mg/kg | – | –
C[C@]12CC[C@H]3[C@@H](CC[C@@H]4C[C@@](O)(C(F)F)CC[C@@H]43)[C@@H]1CC[C@@H]2C(=O)Cn1ccnn1 [SG-5] | > 500% | > 500% | 0.1 to 0.5 µM | – | – | – | –
